Source: patent publication US20250011368A1, “DLL3 TARGETING PEPTIDES AND CONSTRUCTS THEREOF” (MARIANA ONCOLOGY INC., priority 2023, published 2025)
Numbered stars: 1 amine (or outer) side, 2 acyl side, 3 side chain; on linkers, the order of the positions; unused ones are H or OH. Bridge positions count the residues as written; N and C are the ends. Square brackets hold non-standard residues; d marks the D form. Side chains are listed from the residue outwards. Peptide text beside a SMILES is read from it. * marks the point of attachment. X1 = O=C(O)CN1CCN(CC(=O)O)CCN(CC(=O)NCCCC[C@@H](NC(=O)CCOCCOCCOCCOCCOCCOCCOCCOCCOCCOCCOCCOCCNC(=O)Cc2ccc(Br)cc2)C(=O)NCCOCCOCCOCCOCCOCCOCCOCCOCC(=O)*)CCN(CC(=O)O)CC1; PEG24 = NCCOCCOCCOCCOCCOCCOCCOCCOCCOCCOCCOCCOCCOCCOCCOCCOCCOCCOCCOCCOCCOCCOCCOCCOCCC(=O)O; Ala(piperidin-4-yl) = O=C([C@H](CC1CCN([*:3])CC1)N[*:1])[*:2]; DOTA = O=C(O)CN1CCN(CC(=O)O)CCN(CC(=O)*)CCN(CC(=O)O)CC1; γGlu = O=C(O)[C@H](CCC(=O)[*:2])N[*:1]; 2Nal = N[C@@H](Cc1ccc2ccccc2c1)C(=O)O; Palmitoyl = CCCCCCCCCCCCCCCC(=O)*; 3Pal = N[C@@H](Cc1cccnc1)C(=O)O; Chg = N[C@H](C(=O)O)C1CCCCC1; NMeNle = CCCC[C@H](NC)C(=O)O; Ahx = NCCCCCC(=O)O

How the values were obtained:
SHP-77 tumors = assay: Ex vivo biodistribution of radiolabeled peptides in nude mice bearing SHP-77 tumors; conditions: [177Lu]Lu labelling, nude mice bearing SHP-77 tumors (n = 3), 24 hours post-injection
Procedure: Mice were intravenously injected (via the lateral tail vein) with a bolus dose of the radiolabeled peptides for ex vivo biodistribution studies when tumor volumes were in range of 200-400 mm^3 for xenograft mice and when age of the mice was 5-7 weeks for tumor naïve mice studies. To assess the amount of radionuclide injected into individual mice the syringe was assayed in a dose calibrator before and after injection for [^177Lu]Lu-peptide.
Mice were euthanized at pre-determined time points and selected tissues were resected and collected into pre-weighed tubes. The tubes were then reweighed post resection, the difference giving the weight of each tissue. Radioactivity in each tissue was measured using a gamma counter. Counts were decay corrected to the time of injection and percentage of injected activity per gram (% IA/g) was calculated for each tissue based on the injected activity into each individual mouse. Injected activity was converted to counts based on the sensitivity of the gamma counter. The counts in tissue were then converted to the percentage of injected activity and this was divided by the mass of tissue to give % IA/g.

human DLL3 = biological target: T1, human DLL3 (Homo sapiens, UniProt Q9NYJ7); assay: Affinity determination by Surface Plasmon Resonance (SPR); type: binding; conditions: 25° C., biotinylated human DLL3 immobilized on streptavidin sensor chip, 1:1 binding model; read-out: SPR KD
T1 sequence (Q9NYJ7 27-618): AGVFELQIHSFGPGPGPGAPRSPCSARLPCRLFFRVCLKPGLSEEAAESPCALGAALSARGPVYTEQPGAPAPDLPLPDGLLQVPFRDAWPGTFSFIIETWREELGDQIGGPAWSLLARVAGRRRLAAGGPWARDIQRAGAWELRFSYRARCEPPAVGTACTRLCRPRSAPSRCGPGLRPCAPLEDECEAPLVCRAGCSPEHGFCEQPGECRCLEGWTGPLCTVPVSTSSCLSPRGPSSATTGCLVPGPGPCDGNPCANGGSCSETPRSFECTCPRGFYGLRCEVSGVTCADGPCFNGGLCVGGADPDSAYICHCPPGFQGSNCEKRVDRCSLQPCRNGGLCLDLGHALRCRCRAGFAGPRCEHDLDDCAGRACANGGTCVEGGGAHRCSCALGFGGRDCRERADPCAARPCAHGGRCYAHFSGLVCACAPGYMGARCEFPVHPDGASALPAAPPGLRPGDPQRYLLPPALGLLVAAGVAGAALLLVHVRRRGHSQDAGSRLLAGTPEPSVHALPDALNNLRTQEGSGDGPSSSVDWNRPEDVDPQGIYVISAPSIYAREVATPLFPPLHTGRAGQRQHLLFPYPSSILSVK
Method in brief: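 Kinetic and affinity constants were derived by fitting sensorgrams to a 1:1 binding model. Graded compound concentrations flowed at 100 μL/minute in 20 mM phosphate running buffer with 2% DMSO over streptavidin-immobilized biotinylated human DLL3, reference-subtracted.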

CT26.DLL3 cells = assay: Cell binding (total uptake) of [177Lu]Lu-test peptide, CT26.DLL3 cells; type: cell-based; conditions: 1 hour at 37° C.
Procedure: [^177Lu]LuCl3 was received from venders in HCl solution. For every mCi of [^177Lu]LuCl3 added to the reaction vial (1.5 mL Eppendorf vial), ammonium acetate buffer (0.2 M, pH 4.9, 100 μL, containing 1% w/v ascorbic acid and 6% v/v ethanol) and peptide conjugate (1 nmol). A peptide conjugate of the present disclosure is also referred to herein as a “chelator-peptide”. The pH of the solution was determined to be approximately 5 by using pH strips. The reaction vial was incubated at 80° C., 700 RPM for 17-20 minutes. A sample from the reaction was analyzed by RP-HPLC using an Agilent Infinity II 1260 HPLC to determine reaction completion and radiochemical purity of [^177Lu]Lu-chelator-peptide. HPLC conditions: Waters XBridge BEH C18 Column, 130 Å, 3.5 um, 4.6 mm×250 mm; mobile phase: Solvent A=water (with 0.1% formic acid), solvent B=acetonitrile (with 0.1% formic acid). Gradients: 25-45% B in 10 minutes, 45-65% B in 12 minutes, 65-90% in 6 minutes at a flow rate of 0.5 mL/minute. Required amounts of the product was formulated in 1% PBSA for cell studies.
The study was conducted using SHP-77, CT26.WT, and CT26.DLL3 cells (Table 7) Adherent cell studies: The cells were cultured in appropriate culture media (20 mL) in tissue culture treated T150 flasks at 37° C. and 5% CO2. Adherent cells were detached (60-70% confluent) using 5 mL Versene at 37° C. for 3 minutes. After confirming the viability using countess and count of detached cells using Trypan blue, the cells were centrifuged at 4° C. for 5 minutes (1,000 rpm). The cell pellet obtained was washed once with PBS and resuspended in 1% PBSA to obtain the desired cell concentration (5-25 million cells/mL).
Cell numbers used for the assay were in the range of 5 million cells/condition −25 million cells/condition.
Total uptake: Cells were incubated with 300 μL (0.8 μCi) of the incubation buffer (containing radiolabeled peptide [^177Lu] Lu-test peptide) for 1 hour at 37° C. (Table 8). Post incubation, the cells were pelleted and washed 2 times using cold PBS+1% BSA. The supernatant and washes were combined and counted together as “unbound fraction” in a gamma counter. The cells were then resuspended in 300 μL of 1% PBS+1% BSA and counted in the gamma counter as “bound fraction”.
In these Tables, “A” represents %≤25; “B” represents 25<%≤50; “C” represents %>50.

Row | Compound | kidney uptake (% IA/g) (SHP-77 tumors) | tumor uptake (% IA/g) (SHP-77 tumors) | Kd (human DLL3) | % Binding (CT26.DLL3 cells)
1 | CC[C@H](C)[C@H](NC(=O)[C@@H](NC(=O)[C@H](Cc1c[nH]c2ccccc12)NC(C)=O)[C@@H](C)O)C(=O)N[C@H]1CSSC[C@@H](C(=O)N[C@@H](Cc2c[nH]c3ccccc23)C(=O)N2CCC[C@H]2C(=O)N[C@H](CCCCNC(=O)CCCCCNC(=O)CN2CCN(CC(=O)O)CCN(CC(=O)O)CCN(CC(=O)O)CC2)C(N)=O)NC(=O)[C@H](CC(=O)O)NC(=O)[C@H](Cc2cnc[nH]2)NC(=O)[C@H](Cc2c[nH]c3ccccc23)NC(=O)[C@H](CC(N)=O)NC(=O)[C@H](CC(N)=O)NC1=O [compound 47, Ac-W-T-I-C(3)-N-N-W-H-D-C(3)-W-P-(D-Lys)-Ahx-DOTA-NH2] (Ac-WTICNNWHDCWP[dK]([Ahx-DOTA])-NH2; disulfide 4-10) | D (% IA/g > 10 in kidney) | A (0 < % IA/g ≤ 5 in tumor) | 1 to 10 nM | 
2 | CC[C@H](C)[C@H](NC(=O)[C@@H](NC(=O)[C@H](Cc1c[nH]c2ccccc12)NC(C)=O)[C@@H](C)O)C(=O)N[C@H]1CSSC[C@@H](C(=O)N[C@@H](Cc2c[nH]c3ccccc23)C(=O)N2CCC[C@H]2C(=O)N[C@H](CCCCNC(=O)CN2CCN(CC(=O)O)CCN(CC(=O)O)CCN(CC(=O)O)CC2)C(N)=O)NC(=O)[C@H](CC(=O)O)NC(=O)[C@H](CCCCN)NC(=O)[C@H](Cc2ccc3ccccc3c2)NC(=O)[C@H](CC(N)=O)NC(=O)[C@H](CC(N)=O)NC1=O [compound 237, Ac-W-T-I-C(3)-N-N-(2Nal)-K-D-C(3)-W-P-[D-Lys(DOTA)]-NH2] (Ac-WTICNN[2Nal]KDCWP[dK](DOTA)-NH2; disulfide 4-10) |  |  | < 1 nM | A (%≤25)
3 | CC[C@H](C)[C@H](NC(=O)[C@@H](NC(=O)[C@H](Cc1c[nH]c2ccccc12)NC(C)=O)[C@@H](C)O)C(=O)N[C@H]1CSSC[C@@H](C(=O)N[C@@H](Cc2c[nH]c3ccccc23)C(=O)N2CCC[C@H]2C(=O)N[C@H](CCCCNC(=O)COCCOCCOCCOCCOCCOCCOCCOCCNC(=O)[C@@H](CCCCNC(=O)CN2CCN(CC(=O)O)CCN(CC(=O)O)CCN(CC(=O)O)CC2)NC(=O)CCOCCOCCOCCOCCOCCOCCOCCOCCOCCOCCOCCOCCNC(=O)Cc2ccc(Br)cc2)C(N)=O)NC(=O)[C@H](CC(=O)O)NC(=O)[C@H](Cc2c[nH]cn2)NC(=O)[C@H](Cc2ccc3ccccc3c2)NC(=O)[C@H](CC(N)=O)NC(=O)[C@H](CC(N)=O)NC1=O [compound 252, Ac-W-T-I-C(3)-N-N-(2Nal)-H-D-C(3)-W-P-{D-Lys[PEG8-D-Lys(DOTA)-PEG12-COCH2Ph-4Br]}-NH2] (Ac-WTICNN[2Nal]HDCWP[dK](X1)-NH2; disulfide 4-10) | D (% IA/g > 10 in kidney) | A (0 < % IA/g ≤ 5 in tumor) |  | 
4 | CC[C@H](C)[C@H](NC(=O)[C@@H](NC(=O)[C@H](Cc1c[nH]c2ccccc12)NC(C)=O)[C@@H](C)O)C(=O)N[C@H]1CSSC[C@@H](C(=O)N[C@@H](Cc2c[nH]c3ccccc23)C(=O)N2CCC[C@H]2C(=O)N[C@H](CCCCNC(=O)CN2CCN(CC(=O)O)CCN(CC(=O)O)CCN(CC(=O)O)CC2)C(N)=O)NC(=O)[C@H](CC(=O)O)NC(=O)[C@H](Cc2cnc[nH]2)NC(=O)[C@H](Cc2ccc3ccccc3c2)NC(=O)[C@H](Cc2cccnc2)NC(=O)[C@H](CC(N)=O)NC1=O [compound 265, Ac-W-T-I-C(3)-N-(3Pya)-(2Nal)-H-D-C(3)-W-P-[D-Lys(DOTA)]-NH2] (Ac-WTICN[3Pal][2Nal]HDCWP[dK](DOTA)-NH2; disulfide 4-10) | D (% IA/g > 10 in kidney) | A (0 < % IA/g ≤ 5 in tumor) | < 1 nM | 
5 | CC(=O)N[C@@H](Cc1c[nH]c2ccccc12)C(=O)N[C@H](C(=O)N[C@H](C(=O)N[C@H]1CSSC[C@@H](C(=O)N[C@@H](Cc2c[nH]c3ccccc23)C(=O)N2CCC[C@H]2C(=O)N[C@H](CCCCNC(=O)CN2CCN(CC(=O)O)CCN(CC(=O)O)CCN(CC(=O)O)CC2)C(N)=O)NC(=O)[C@H](CC(=O)O)NC(=O)[C@H](Cc2cnc[nH]2)NC(=O)[C@H](Cc2ccc3ccccc3c2)NC(=O)[C@H](CC(N)=O)NC(=O)[C@H](CC2CCNCC2)NC1=O)C1CCCCC1)[C@@H](C)O [compound 280, Ac-W-T-(Chg)-C(3)-[3-(4-piperidinyl)-Ala]-N-(2Nal)-H-D-C(3)-W-P-[D-Lys(DOTA)]-NH2] (Ac-WT[Chg]C[Ala(piperidin-4-yl)]N[2Nal]HDCWP[dK](DOTA)-NH2; disulfide 4-10) | C (0 < % IA/g ≤ 10 in kidney) | A (0 < % IA/g ≤ 5 in tumor) | < 1 nM | 
6 | CCCCCCCCCCCCCCCC(=O)N[C@@H](CCC(=O)NCCOCCOCCOCCOCCOCCOCCOCCOCCOCCOCCOCCOCCOCCOCCOCCOCCOCCOCCOCCOCCOCCOCCOCCOCCC(=O)NCCCC[C@@H]1NC(=O)[C@H](Cc2ccc3ccccc3c2)NC(=O)[C@H](CC(N)=O)NC(=O)[C@H](CC2CCNCC2)NC(=O)[C@@H](NC(=O)[C@H](CCCC)N(C)C(=O)[C@@H](NC(=O)[C@H](Cc2c[nH]c3ccccc23)NC(C)=O)[C@@H](C)O)CSSC[C@@H](C(=O)N[C@@H](Cc2c[nH]c3ccccc23)C(=O)N2CCC[C@H]2C(=O)N[C@H](CCCCNC(=O)CN2CCN(CC(=O)O)CCN(CC(=O)O)CCN(CC(=O)O)CC2)C(N)=O)NC(=O)[C@H](CC(=O)O)NC1=O)C(=O)O [compound 427, Ac-W-T-(NMe-Nle)-C(3)-[3-(4-piperidinyl)-Ala]-N-(2Nal)-Lys(PEG24-[gE(C16)]-OH)-D-C(3)-W-P-[D-Lys(DOTA)]-NH2] (Ac-WT[NMeNle]C[Ala(piperidin-4-yl)]N[2Nal]K([PEG24-γGlu-Palmitoyl])DCWP[dK](DOTA)-NH2; disulfide 4-10) |  |  | 10 to 100 nM | 
7 | CC[C@H](C)[C@H](NC(=O)[C@@H](NC(=O)[C@H](Cc1c[nH]c2ccccc12)NC(C)=O)[C@@H](C)O)C(=O)N[C@H]1CSSC[C@@H](C(=O)N[C@@H](Cc2c[nH]c3ccccc23)C(=O)N2CCC[C@H]2C(=O)N[C@H](CCCCNC(=O)CN2CCN(CC(=O)O)CCN(CC(=O)O)CCN(CC(=O)O)CC2)C(N)=O)NC(=O)[C@H](CC(=O)O)NC(=O)[C@H](Cc2cnc[nH]2)NC(=O)[C@H](Cc2ccc3ccccc3c2)NC(=O)[C@H](CC(N)=O)NC(=O)[C@H](CCCCN)NC1=O [compound 451, Ac-W-T-I-C(3)-K-N-(2Nal)-H-D-C(3)-W-P-[D-Lys(DOTA)]-CONH2] (Ac-WTICKN[2Nal]HDCWP[dK](DOTA)-NH2; disulfide 4-10) | D (% IA/g > 10 in kidney) | A (0 < % IA/g ≤ 5 in tumor) |  | 
8 | Ac-W-T-I-C(3)-N-N-(2Nal)-(4Pya)-D-C(3)-W-P-[D-Lys(DOTA)]-NH2 [compound 367] |  |  | < 1 nM | 
